Measurements from patent US5698567A, “Heterocyclic spiro compounds” (Adir Et Compagnie, priority 1995, dated 1997).
Where a name gives a salt, the structure may show the parent alone.

How the values were obtained:
5-lipoxygenase [1] = assay: Inhibition of the synthesis of LTB4 by the peritoneal PMN of rats in vitro (5-lipoxygenase-inhibiting activity); assay type: cell-based, rat; conditions: rat peritoneal PMN, A23187 10^-6 M
Excerpt: 1.1 Determination of 5-1ipoxygenase-inhibiting activity in vitro (see Goldyne M. E., Burrish G. F., Poubelle P. and Borgeat P., Arachidonic Acid Metabolism among human mononuclear leukocytes. The Journal of Biological Chemistry. Vol. 259, N° 4, p. 8815-8819, 1984, and New Chang C. and Gin Wensu. Stimulation of 5-Lipoxygenase Activity in Polymorphonuclear Leukocytes of Rats by Caseinate Treatment. Biochemical Pharmacology. Vol. 36, N° 8, p. 3033-3036, 1987).
(§1) 5-Lipoxygenase-inhibiting activity was determined on peritoneal leukocytes of rats. Leukocytosis is induced in male OFA rats (IFFA CREDO) weighing 200-250 g by the intraperitoneal injection of 12% sodium caseinate. 18 hours later, the cells are collected by washing the abdominal cavity. The number of cells is adjusted to 2×10^6 /ml.
(§2) The cell suspension is incubated for 10 minutes at 37° C. in the presence of Ca^2+ 5×10^-4 M and Mg^2+ 2×10^-3 M and of various concentrations of the test products. The cells are then stimulated with the calcium ionophore A23187 at a concentration of 10^-6 M for 5 minutes at 37° C. Controls are carded out by incubating the cells with the solvent for the products: 2% DMSO.
After stopping the reaction at +4° C. and centrifugation, the quantity of LTB4 in ng/2×10^6 cells in the supernatants is determined by the E.I.A. method (Statlergenes France). The percentage inhibition is calculated as follows: [formula]
(§3) Metabolism of arachidonic acid by the peritoneal PMN of rats stimulated
(§4) for 5 minutes in vitro by the calcium ionophore (A23187): 10^-6 M.
(§5) Incubation of the products with the cells for 10 minutes prior to
(§6) stimulation with the ionophore.

[2] = tested on: synthesis of PGE2 by the peritoneal PMN of rats; assay: Inhibition of the synthesis of PGE2 by the peritoneal PMN of rats in vitro; assay type: cell-based, rat; conditions: A23187; for inhibition at 100 µM: 10^-4 M; for inhibition at 100 µM / inhibition at 10 µM: rat peritoneal PMN; for inhibition at 10 µM: 10^-5 M; for IC50: rat peritoneal PMN in vitro
Description: as §1, §2, §3, §4, §5, §6

5-lipoxygenase [3] = assay: Inhibition of the synthesis of LTB4 in total blood of rats ex vivo (5-lipoxygenase-inhibiting activity); design: species or system rat; conditions: 60 μmol/kg p.o., 1 h; A23187 5 × 10^-5 M, n = 8
Description: 1.2 Determination of 5-lipoxygenase-inhibiting activity ex vivo (see Brideau C., Chan C., Charleson S., Denis D. et al. Pharmacology of MK-0591 (3-[1-(4-chlorobenzyl)-3-(t-butyl-thio)-5(quinolin-2-yl-methoxy)-indol-2-yl]-2,2-dimethyl propanoic acid), a Potent, Orally Active Leukotriene Biosynthesis Inhibitor. Can. J. Physiol. Pharmacol. Vol. 70, p. 799-807, 1992).
Inhibition of the biosynthesis of leukotrienes ex vivo following oral administration of the compounds was determined by studying the production of leukotrienes on total blood of rats stimulated in vitro by the calcium ionophore at time 1 hour after oral administration of the compounds.
The various products are administered in suspension in hydroxyethylcellulose: 0.5% H.E.C. at a dose of 60 μmol/kg. Each product is studied on a group of 8 different animals. A control group receives 0.5% H.E.C. only. After intracardial removal of the blood from each rat (male Sprague Dawley rats weighing 150-200 g IFFA CREDO), 1 ml of heparinised blood is incubated with the calcium ionophore A23 187 at a concentration of 5×10^-5 M for 10 minutes at 37° C. The blood is then centrifuged immediately and 100 μl of plasma are extracted in 400 μl of methanol. After centrifugation, the supernatant is evaporated to dryness under N2, the dry residue is taken up in buffer solution, and the LTB4 is assayed by the E.I.A. method (Stallergenes France).
The percentage inhibition is expressed as follows: [formula] 2/Results
Average relative to all controls n = 31
Products administered p.o. 1 hour before removal of blood n = 8
Total blood of rats stimulated for 10 minutes in vitro by the calcium

**Q.** For `O=C1NCC2(CCN(CC(c3ccc(Cl)cc3)c3ccc(OCc4ccc5ccccc5n4)cc3)CC2)O1` (racemic) [Example 8, (R,S)-8-{2-(4-chlorophenyl)-2-[4-(quinol-2-ylmethoxy)phenyl]ethyl}-3,8-diaza-1-oxa-2-oxospiro[4,5]decane dihydrochloride], which “LTB4 % Inhibition” value (5-lipoxygenase [1]; 4.10^-8 M) is on record?
**A.** 85%

**Q.** What about the “LTB4 % Inhibition” value (5-lipoxygenase [1]; 10^-6 M) of the same compound?
**A.** 100%

**Q.** What about the “LTB4 % Inhibition” value (5-lipoxygenase [1]; 10^-7 M) of the same compound?
**A.** 100%

**Q.** And the “LTB4 % Inhibition” value (5-lipoxygenase [1]; 10^-8 M)?
**A.** 22%

**Q.** What about the inhibition at 100 µM [2] of the same compound?
**A.** 72%

**Q.** And the inhibition at 10 µM [2]?
**A.** 32%

**Q.** What about the “% Inhibition of the synthesis of LTB4 in total blood of rats ex vivo” value (“% Inhibition of the synthesis of LTB4” below) (5-lipoxygenase [3]) of the same compound?
**A.** 46%

**Q.** How did the “LTB4 % Inhibition” value (5-lipoxygenase [1]; 4.10^-8 M) turn out when `O=C1NCC2(CCN(C(c3ccc(Cl)cc3)c3ccc(OCc4ccc5ccccc5n4)cc3)CC2)O1` (racemic) [Example 22, (R,S)-8-{(4-chlorophenyl)-[4-(quinol-2-ylmethoxy)phenyl]methyl}-3,8-diaza-1-oxa-2-oxospiro[4,5]decane dihydrochloride] was run?
**A.** 76%

**Q.** What about the “LTB4 % Inhibition” value (5-lipoxygenase [1]; 10^-6 M) of the same compound?
**A.** 100%

**Q.** And the “LTB4 % Inhibition” value (5-lipoxygenase [1]; 10^-7 M)?
**A.** 97%

**Q.** And the “LTB4 % Inhibition” value (5-lipoxygenase [1]; 10^-8 M)?
**A.** 18%

**Q.** What about the inhibition at 100 µM [2] of the same compound?
**A.** 4%

**Q.** What about the inhibition at 10 µM [2] of the same compound?
**A.** 6%

**Q.** What about the IC50 [2] of the same compound?
**A.** > 100 µM

**Q.** And the “% Inhibition of the synthesis of LTB4” value (5-lipoxygenase [3])?
**A.** 17%

**Q.** Which results are given for `O=C1NCC2(CCN(C(c3ccccc3)c3ccc(OCc4ccc5ccccc5n4)cc3)CC2)O1` (racemic) [Example 24, (R,S)-8-{phenyl-[4-(quinol-2-ylmethoxy)phenyl]methyl}-3,8-diaza-1-oxa-2-oxospiro[4,5]decane]?
**A.** LTB4 % Inhibition (5-lipoxygenase [1]; 4.10^-8 M): 56%; LTB4 % Inhibition (5-lipoxygenase [1]; 10^-7 M): 100%; inhibition at 100 µM [2]: 44%; inhibition at 10 µM [2]: 19%; IC50 [2]: > 100 µM; % Inhibition of the synthesis of LTB4 in total blood of rats ex vivo (5-lipoxygenase [3]): 41%

**Q.** With `O=C1NCC2(CCN(CC(Cc3ccccc3)c3ccc(OCc4ccc5ccccc5n4)cc3)CC2)O1` (racemic) [Example 32, (R,S)-8-{3-phenyl-2-[4-(quinol-2-ylmethoxy)phenyl]propyl}-3,8-diaza-1-oxa-2-oxospiro[4,5]decane] as the compound, how does the “LTB4 % Inhibition” value (5-lipoxygenase [1]; 4.10^-8 M) read?
**A.** 24%

**Q.** And the “LTB4 % Inhibition” value (5-lipoxygenase [1]; 10^-6 M)?
**A.** 100%

**Q.** And the “LTB4 % Inhibition” value (5-lipoxygenase [1]; 10^-7 M)?
**A.** 78%

**Q.** What about the inhibition at 100 µM [2] of the same compound?
**A.** 92%

**Q.** What about the “% Inhibition of the synthesis of LTB4” value (5-lipoxygenase [3]) of the same compound?
**A.** 55%

**Q.** `O=C1NCC2(CCN(CC(CCc3ccccc3)c3ccc(OCc4ccc5ccccc5n4)cc3)CC2)O1` (racemic) [Example 33, (R,S)-8-{4-phenyl-2-[4-(quinol-2-ylmethoxy)phenyl]butyl}-3,8-diaza-1-oxa-2-oxospiro[4,5]decane] was tested. Which “LTB4 % Inhibition” value (5-lipoxygenase [1]; 4.10^-8 M) did it give?
**A.** 54%

**Q.** What about the “LTB4 % Inhibition” value (5-lipoxygenase [1]; 10^-7 M) of the same compound?
**A.** 86%

**Q.** What about the “LTB4 % Inhibition” value (5-lipoxygenase [1]; 10^-8 M) of the same compound?
**A.** 6%

**Q.** And the inhibition at 100 µM [2]?
**A.** 94%

**Q.** What about the inhibition at 10 µM [2] of the same compound?
**A.** 7%

**Q.** And the “% Inhibition of the synthesis of LTB4” value (5-lipoxygenase [3])?
**A.** 48%

**Q.** How did the “LTB4 % Inhibition” value (5-lipoxygenase [1]; 4.10^-8 M) turn out when `O=C1NCC2(CCN(CC(Cc3ccc(Cl)cc3)c3ccc(OCc4ccc5ccccc5n4)cc3)CC2)O1` (racemic) [Example 34, (R,S)-8-{3-(4-chlorophenyl)-2-[4-(quinol-2-ylmethoxy)phenyl]propyl}-3,8-diaza-1-oxa-2-oxospiro[4,5]decane hydrochloride] was run?
**A.** 56%

**Q.** What about the “LTB4 % Inhibition” value (5-lipoxygenase [1]; 10^-6 M) of the same compound?
**A.** 100%

**Q.** What about the “LTB4 % Inhibition” value (5-lipoxygenase [1]; 10^-7 M) of the same compound?
**A.** 72%

**Q.** What about the “LTB4 % Inhibition” value (5-lipoxygenase [1]; 10^-8 M) of the same compound?
**A.** 12%

**Q.** What about the inhibition at 100 µM [2] of the same compound?
**A.** 6%

**Q.** And the inhibition at 10 µM [2]?
**A.** 2%

**Q.** And the IC50 [2]?
**A.** > 100 µM

**Q.** What about the “% Inhibition of the synthesis of LTB4” value (5-lipoxygenase [3]) of the same compound?
**A.** 58%
